Results published in publication PMC3847553, “Kinetic properties of “dual” orexin receptor antagonists at OX1R and OX2R orexin receptors” (Frontiers in Neuroscience, 2013).

How the values were obtained:
OX1R [1] = assay: FLIPR calcium assay, OX1R, species not given; type: cell-based; conditions: species not stated
Protocol: (§1) Determination of orexin A-stimulated calcium accumulation was performed over 2 days using FLIPR® (Fluorescent imaging plate reader from Molecular Devices-FLIPR384). Cells expressing either human, rat or mouse OX1R or OX2R were seeded at 8,000 cells/well in black 384 well clear bottom plates and incubated overnight at 37°C. The following day, medium was discarded and cells loaded with 50 μ l of 1 mM Fluo-4 AM (Invitrogen F14202) in dimethyl sulfoxide in working buffer (Hanks' balanced salt solution, 10 mM HEPES) and incubated for 60 min at 37°C. The loading buffer was removed and cells were washed with 100 μ l working buffer containing […], 0.1% BSA, and 2.5 mM Probenecid (pH 7.4) to remove the excess Fluo-4 AM. Working buffer was added and plates were incubated 10–15 min at room temperature. The assay plate was then transferred to the Molecular Devices-FLIPR384. The baseline calcium signal was recorded for 10 s, then the antagonist of interest was injected (10 μl at 3 times the final concentration) and the calcium signal recorded every second for 1 min, then every 2 s 40 times. Plates were then incubated at room temperature for 30 min, 1, 2, or 4 h.

human OX1R [2] = target: T1, human OX1R (Homo sapiens, UniProt O43613); assay: [3H]-BBAC competition binding over time, CHO-hOX1 membranes
T1 construct: expressed in transfected cells; host or cells: CHO; cells from GNF, San Diego
T1 sequence (O43613 1-425): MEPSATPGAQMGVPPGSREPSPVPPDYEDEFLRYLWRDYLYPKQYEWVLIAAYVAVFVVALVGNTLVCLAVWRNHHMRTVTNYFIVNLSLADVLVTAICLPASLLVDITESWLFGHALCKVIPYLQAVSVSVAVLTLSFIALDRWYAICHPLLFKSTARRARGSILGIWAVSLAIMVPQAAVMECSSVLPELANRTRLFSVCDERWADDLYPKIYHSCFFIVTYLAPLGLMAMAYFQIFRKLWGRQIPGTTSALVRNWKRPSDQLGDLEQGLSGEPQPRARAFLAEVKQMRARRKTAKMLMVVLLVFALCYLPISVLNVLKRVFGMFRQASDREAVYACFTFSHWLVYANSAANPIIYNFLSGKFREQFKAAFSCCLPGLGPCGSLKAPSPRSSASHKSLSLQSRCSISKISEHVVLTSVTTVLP
Text: (§2) Chinese Hamster Ovary (CHO) cells stably transfected with the cDNA encoding the human OX1R (CHO-hOX1) or OX2R (CHO-hOX2) were used (kindly provided by T. Cremer and Dr. S. Geisse, NIBR Basel, Switzerland). For measurements of calcium accumulation using FLIPR® (Fluorescent Imaging Plate Reader) assay, CHO or Human Embryonic Kidney (HEK) cells stably expressing mouse, rat or human OX1R or OX2R (kindly provided by Dr. A. Chen, GNF, San Diego, CA, USA) were used. […] Cells were maintained in a humidified incubator at 37°C in 5% CO2. For crude cell membrane preparations, cells were washed and harvested in 10 mM HEPES (pH 7.5), and centrifuged at 4°C for 5 min at 2500 g. The cell pellet was either stored at −80°C or used directly.
(§3) Cell membranes were resuspended in binding assay buffer at 4°C (10 mM HEPES, pH 7.5, 0.5% (w/v) bovine serum albumin (BSA), 5 mM MgCl2, 1 mM CaCl2, and 0.05% Tween 20) and homogenized with a Polytron homogenizer at 50 Hz for 20 s. […] Radioactivity was quantified using a TopCount™ microplate counter (Perkin Elmer).
(§4) All data was analyzed using GraphPad Prism 4.0 (GraphPad, San Diego, USA). The saturation data was fit to a non-linear regression model for saturation binding with consideration for one site binding. […] Competition binding data was fit to a non-linear regression model for competition binding with consideration for variable one site binding with a non-fixed Hill slope.

human OX2R [3] = target: T2, human OX2R (Homo sapiens, UniProt O43614); assay: [3H]-BBAC competition binding over time, CHO-hOX2 membranes
T2 construct: expressed in transfected cells; host or cells: CHO; cells from GNF, San Diego
T2 sequence (O43614 1-444): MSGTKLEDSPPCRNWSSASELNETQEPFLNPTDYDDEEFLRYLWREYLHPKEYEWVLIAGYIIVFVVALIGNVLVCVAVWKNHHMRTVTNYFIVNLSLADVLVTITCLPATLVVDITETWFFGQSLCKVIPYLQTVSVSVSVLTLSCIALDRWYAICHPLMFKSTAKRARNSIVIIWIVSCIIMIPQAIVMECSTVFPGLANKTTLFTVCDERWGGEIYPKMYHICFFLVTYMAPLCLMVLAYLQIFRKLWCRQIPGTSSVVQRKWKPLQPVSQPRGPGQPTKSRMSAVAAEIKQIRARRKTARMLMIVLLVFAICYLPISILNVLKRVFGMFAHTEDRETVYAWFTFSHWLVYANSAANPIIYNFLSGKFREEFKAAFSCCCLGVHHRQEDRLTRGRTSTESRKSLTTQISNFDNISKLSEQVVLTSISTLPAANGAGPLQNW
Text: as §2, §3, §4

OX2R = assay: FLIPR calcium assay, OX2R, species not given; type: cell-based; conditions: species not stated
Protocol: as §1

sleep = test system: sleep; design: method as in Fox et al., 2013; conditions: rodent studies; ref Fox et al., 2013; cited from earlier work
human OX1R [4] = target: T1, human OX1R; assay: [3H]-BBAC saturation binding, CHO-hOX1 membranes
Text: as §2, §3
(§5) Data in the figures is representative of the mean ± s.e.m. of a single experiment.
(§6) All data was analyzed using GraphPad Prism 4.0 (GraphPad, San Diego, USA). The saturation data was fit to a non-linear regression model for saturation binding with consideration for one site binding. […]

human OX2R [5] = target: T2, human OX2R; assay: [3H]-BBAC saturation binding, CHO-hOX2 membranes
Text: as §2, §3, §5, §6

OX1R [6] = test system: OX1R; design: method as in Sakurai et al., 1998; conditions: competition radioligand binding, ref Sakurai et al., 1998; cited from earlier work

Molecule: Cn1c(SCC(=O)N2CCC[C@H]2C(=O)Nc2ccccc2-c2ccccc2)nc2ccccc21 [BBAC, (S)-N-([1,1′-biphenyl]-2-yl)-1-(2-((1-methyl-1H-benzo[d]imidazol-2-yl)thio)acetyl)pyrrolidine-2-carboxamide]
- effect of incubation time on potency in calcium assay (OX1R [1]): constant potency values irrespective of the incubation time
- effect of incubation time on competition curves (human OX1R [2]; competition for 4.6 nM [3H]-BBAC, 15 min to 4 h, human OX1R): no significant difference in IC50 values measured between 30 min and 4 h
- time to reach equilibrium (human OX1R [2]; competition for [3H]-BBAC, OX1R): 15 to 30 min
- effect of incubation time on competition curves (human OX2R [3]; competition for 4.6 nM [3H]-BBAC, 15 min to 4 h, human OX2R): no significant difference in IC50 values measured between 30 min and 4 h
- time to reach equilibrium (human OX2R [3]; competition for [3H]-BBAC, OX2R): 15 to 30 min
- effect of incubation time on potency in calcium assay (OX2R): constant potency values irrespective of the incubation time

Molecule: C[C@@H]1CC[C@@H](COc2ccc(F)cn2)CN1C(=O)c1cc(F)ccc1-c1ncccn1 [DORA-22]
- effect on sleep (sleep): promotes sleep with dose-dependent increases in REM sleep

Molecule: Cn1c(SCC(=O)N2CCC[C@H]2C(=O)Nc2ccccc2-c2ccccc2)nc2ccccc21 [[^3H]-BBAC, (S)-N-([1,1′-biphenyl]-2-yl)-1-(2-((1-methyl-1H-benzo[d]imidazol-2-yl)thio)acetyl)pyrrolidine-2-carboxamide]
- incubation time sufficient to reach Bmax and KD values comparable to 4 h (human OX1R [4]): 15 to 30 min
- Kd (human OX2R [5]; CHO-hOX2 membranes, room temperature): ~1 nM
- incubation time sufficient to reach Bmax and KD values comparable to 4 h (human OX2R [5]; OX2R): 15 to 30 min

Molecule: orexin B: endogenous orexin peptide
- affinity (OX1R [6]): 250 nM
